This passage reports EC50 results from US20230365553A1, “COMPOUNDS AND COMPOSITIONS FOR TREATING CONDITIONS ASSOCIATED WITH STING ACTIVITY” (IFM Due, Inc., priority 2020, published 2023).

Molecules are shown by their SMILES.

In this assay the target is T1, STING (Homo sapiens, UniProt Q86WV6, G230A/H232R/R293Q/R71H).
T1 construct: host or cells: THP1-Dual KO-IFNAR2 cells
T1 sequence (Q86WV6 whole entry R71H/G230A/H232R/R293Q): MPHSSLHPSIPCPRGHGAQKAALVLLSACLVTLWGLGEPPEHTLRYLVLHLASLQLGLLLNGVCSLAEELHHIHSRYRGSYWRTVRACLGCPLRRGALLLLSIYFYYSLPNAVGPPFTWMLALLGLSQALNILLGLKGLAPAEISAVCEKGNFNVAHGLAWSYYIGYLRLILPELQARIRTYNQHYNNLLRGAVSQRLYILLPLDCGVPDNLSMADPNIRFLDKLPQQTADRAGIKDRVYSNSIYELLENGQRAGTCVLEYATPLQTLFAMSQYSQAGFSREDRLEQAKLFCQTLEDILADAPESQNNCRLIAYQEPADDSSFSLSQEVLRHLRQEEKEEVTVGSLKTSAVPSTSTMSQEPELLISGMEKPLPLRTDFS
The experiment in a line: STING reporter assay: luciferase reporter activity in THP1-Dual KO-IFNAR2 cells stimulated with 2′3′cGAMP. It is filed as cell-based. The note with it: 15 μM 2′3′cGAMP, 24h, read-out: hSTING EC50. On the procedure: STING pathway activation by the compounds described herein was measured using THP 1-Dual™ cells (KO-IFNAR2).
THP1-Dual™ KO-IFNAR2 Cells (obtained from invivogen) were maintained in RPMI, 10% FCS, 5 ml P/S, 2 mM L-glut, 10 mM Hepes, and 1 mM sodium pyruvate. Compounds were spotted in empty 384 well tissue culture plates (Greiner 781182) by Echo for a final concentration of 0.0017-100 μM. Cells were plated into the TC plates at 40 μL per well, 2×10E6 cells/mL. For activation with STING ligand, 2′3′cGAMP (MW 718.38, obtained from Invivogen), was prepared in Optimem media.
The following solutions were prepared for each 1×384 plate: • Solution A: 2 mL Optimem with one of the following stimuli: • 60 μL of 10 mM 2′3′cGAMP→150 μM stock • Solution B: 2 mL Optimem with 60 μL Lipofectamine 2000→Incubate 5 min at RT
2 mL of solution A and 2 ml Solution B was mixed and incubated for 20 min at room temperature (RT). 20 μL of transfection solution (A+B) was added on top of the plated cells, with a final 2′3′cGAMP concentration of 15 μM. The plates were then centrifuged immediately at 340 g for 1 minute, after which they were incubated at 37° C., 5% CO2, >98% humidity for 24h. Luciferase reporter activity was then measured. EC50 values were calculated by using standard methods known in the art.
Luciferase reporter assay: 10 μL of supernatant from the assay was transferred to white 384-plate with flat bottom and squared wells. One pouch of QUANTI-Luc™ Plus was dissolved in 25 mL of water. 100 μL of QLC Stabilizer per 25 mL of QUANTI-Luc™ Plus solution was added. 50 μL of QUANTI-Luc™ Plus/QLC solution per well was then added. Luminescence was measured on a Platereader (e.g., Spectramax I3X (Molecular Devices GF3637001)).
Luciferase reporter activity was then measured. EC50 values were calculated by using standard methods known in the art.
Turning to `O=C1CCC[C@@H](C(=O)Nc2c[nH]c3ccc(-c4cnn(-c5ccc(C(F)(F)F)cc5)c4)cc23)N1` [Compound 221, (S)-6-oxo-N-(5-(1-(4-(trifluoromethyl)phenyl)-1H-pyrazol-4-yl)-1H-indol-3-yl)piperidine-2-carboxamide], the EC50 is 1000 to 5000 nM.
The result for `O=C(Nc1c[nH]c2ccc(-c3cnn(-c4ccc(C(F)(F)F)cc4)c3)cc12)C1(O)CCC1` [Compound 202, 1-hydroxy-N-(5-(1-(4-(trifluoromethyl)phenyl)-1H-pyrazol-4-yl)-1H-indol-3-yl)cyclobutane-1-carboxamide] reads 200 to 1000 nM.
With `O=C(Nc1c[nH]c2ccc(-c3cnn(-c4ccc(C(F)(F)F)cc4)c3)cc12)c1cocn1` [Compound 267, N-(5-(1-(4-(trifluoromethyl)phenyl)-1H-pyrazol-4-yl)-1H-indol-3-yl)oxazole-4-carboxamide], the EC50 lay in the range of 200 to 1000 nM.
Consider `CCc1ccc(-n2cc(-c3ccc4[nH]cc(NC(=O)C(C)O)c4c3)cn2)cc1` (stereo not drawn) [Compound 132, N-(5-(1-(4-ethylphenyl)-1H-pyrazol-4-yl)-1H-indol-3-yl)-2-hydroxypropanamide], for which the EC50 lay within 200 to 1000 nM.
Consider `O=C(Nc1c[nH]c2ccc(-c3cnn(-c4ccc(C(F)(F)F)cc4)c3)cc12)c1cncs1` [Compound 268, N-(5-(1-(4-(trifluoromethyl)phenyl)-1H-pyrazol-4-yl)-1H-indol-3-yl)thiazole-5-carboxamide], for which the EC50 lay in the range of 200 to 1000 nM.
`CC(C)[C@H](O)C(=O)Nc1c[nH]c2ccc(-c3cnn(-c4ccc(C(F)(F)F)cc4)c3)cc12` [Compound 204, (S)-2-hydroxy-3-methyl-N-(5-(1-(4-(trifluoromethyl)phenyl)-1H-pyrazol-4-yl)-1H-indol-3-yl)butanamide]: the EC50 was in the range of 1000 to 5000 nM.
Consider `CC(=O)Nc1c[nH]c2ccc(-c3cnn([C@H](C)c4cccc(C(F)(F)F)c4)c3)cc12` [Compound 176, (R)-N-(5-(1-(1-(3-(trifluoromethyl)phenyl)ethyl)-1H-pyrazol-4-yl)-1H-indol-3-yl)acetamide], for which the EC50 lay within 200 to 1000 nM.
Consider `O=C(Nc1c[nH]c2ccc(-c3cnn(-c4ccc(C(F)(F)F)cc4)c3)cc12)c1ccc(=O)[nH]n1` [Compound 282, 6-oxo-N-(5-(1-(4-(trifluoromethyl)phenyl)-1H-pyrazol-4-yl)-1H-indol-3-yl)-1,6-dihydropyridazine-3-carboxamide], for which the EC50 is 1000 to 5000 nM.
Consider `O=C(Nc1c[nH]c2ccc(-c3cnn(-c4ccc(C(F)(F)F)cc4)c3)cc12)C1CC1(F)F` (stereo not drawn) [Compound 239, 2,2-difluoro-N-(5-(1-(4-(trifluoromethyl)phenyl)-1H-pyrazol-4-yl)-1H-indol-3-yl)cyclopropane-1-carboxamide], for which the EC50 was 200 to 1000 nM.
Turning to `O=C(Nc1c[nH]c2ccc(-c3cnn(-c4ccc(C(F)(F)F)cc4)c3)cc12)c1cnn[nH]1` [Compound 261, N-(5-(1-(4-(trifluoromethyl)phenyl)-1H-pyrazol-4-yl)-1H-indol-3-yl)-1H-1,2,3-triazole-5-carboxamide], the EC50 fell in the range of 1000 to 5000 nM.
For the compound `CCC(=O)Nc1c[nH]c2ccc(-c3cccc(C4CC4)c3)cc12` [Compound 146, N-(5-(3-cyclopropylphenyl)-1H-indol-3-yl)propionamide], the EC50 was in the range of 1000 to 5000 nM.
For the compound `CCC(=O)Nc1c[nH]c2ccc(-c3ccc(CN4CCOCC4)s3)cc12` [Compound 135, N-(5-(5-(morpholinomethyl)thiophen-2-yl)-1H-indol-3-yl)propionamide], the half-maximal effective concentration (EC50) lay within 5000 to 100000 nM.
The result for `O=C(CC(O)C(F)(F)F)Nc1c[nH]c2ccc(-c3cnn(-c4ccc(C(F)(F)F)cc4)c3)cc12` (stereo not drawn) [Compound 195, 4,4,4-trifluoro-3-hydroxy-N-(5-(1-(4-(trifluoromethyl)phenyl)-1H-pyrazol-4-yl)-1H-indol-3-yl)butanamide] reads 200 to 1000 nM; that for `N#Cc1cc(C(=O)Nc2c[nH]c3ccc(-c4cnn(-c5ccc(C(F)(F)F)cc5)c4)cc23)n[nH]1` [Compound 264, 5-cyano-N-(5-(1-(4-(trifluoromethyl)phenyl)-1H-pyrazol-4-yl)-1H-indol-3-yl)-1H-pyrazole-3-carboxamide], 1000 to 5000 nM; that for `N#CC1(C(=O)Nc2c[nH]c3ccc(-c4cnn(-c5ccc(C(F)(F)F)cc5)c4)cc23)CCOCC1` [Compound 220, 4-cyano-N-(5-(1-(4-(trifluoromethyl)phenyl)-1H-pyrazol-4-yl)-1H-indol-3-yl)tetrahydro-2H-pyran-4-carboxamide], 5000 to 100000 nM.
For the compound `CC(C)(O)C(=O)Nc1c[nH]c2ccc(-c3cnn(-c4ccc(C(F)(F)F)cc4)c3)cc12` [Compound 198, 2-hydroxy-2-methyl-N-(5-(1-(4-(trifluoromethyl)phenyl)-1H-pyrazol-4-yl)-1H-indol-3-yl)propanamide], the EC50 was 1000 to 5000 nM.
The value for `O=C(Nc1c[nH]c2ccc(-c3cnn(-c4ccc(C(F)(F)F)cc4)c3)cc12)C1(O)CCCC1` [Compound 186, 1-hydroxy-N-(5-(1-(4-(trifluoromethyl)phenyl)-1H-pyrazol-4-yl)-1H-indol-3-yl)cyclopentane-1-carboxamide] was 200 to 1000 nM.
For `CC(=O)Nc1c[nH]c2ccc(-c3cnn(-c4ccc(CC(F)(F)F)cc4)c3)cc12` [Compound 167, N-(5-(1-(4-(2,2,2-trifluoroethyl)phenyl)-1H-pyrazol-4-yl)-1H-indol-3-yl)acetamide], the EC50 was 40 to 200 nM.
Turning to `O=C(CCC(F)(F)F)Nc1c[nH]c2ccc(-c3cnn(-c4ccc(C(F)(F)F)cc4)c3)cc12` [Compound 214, 4,4,4-trifluoro-N-(5-(1-(4-(trifluoromethyl)phenyl)-1H-pyrazol-4-yl)-1H-indol-3-yl)butanamide], the EC50 fell in the range of 200 to 1000 nM.
`COCC1(C(=O)Nc2c[nH]c3ccc(-c4cnn(-c5ccc(C(F)(F)F)cc5)c4)cc23)CCC1` [Compound 199, 1-(methoxymethyl)-N-(5-(1-(4-(trifluoromethyl)phenyl)-1H-pyrazol-4-yl)-1H-indol-3-yl)cyclobutane-1-carboxamide]: the EC50 lay in the range of 1000 to 5000 nM.
For the compound `O=C(Nc1c[nH]c2ccc(-c3cnn(-c4ccc(C(F)(F)F)cc4)c3)cc12)c1nccs1` [Compound 273, N-(5-(1-(4-(trifluoromethyl)phenyl)-1H-pyrazol-4-yl)-1H-indol-3-yl)thiazole-2-carboxamide], the EC50 lay in the range of 1000 to 5000 nM.
On to `CC(=O)Nc1c[nH]c2ccc(-c3cnn(-c4ccc(C(F)(F)F)cc4)c3)cc12` [Compound 245, N-(5-(1-(4-(trifluoromethyl)phenyl)-1H-pyrazol-4-yl)-1H-indol-3-yl)acetamide], for which the EC50 is 40 to 200 nM.
Take `CC(=O)N(C)CC(=O)Nc1c[nH]c2ccc(-c3cnn(-c4ccc(C(F)(F)F)cc4)c3)cc12` [Compound 225, N-methyl-N-(2-oxo-2-((5-(1-(4-(trifluoromethyl)phenyl)-1H-pyrazol-4-yl)-1H-indol-3-yl)amino)ethyl)acetamide]: the EC50 fell in the range of 1000 to 5000 nM.
Regarding `CCC(=O)Nc1c[nH]c2ccc(-c3ccc(OC(F)(F)F)cc3)cc12` [Compound 143, N-(5-(4-(trifluoromethoxy)phenyl)-1H-indol-3-yl)propionamide], the EC50 is 1000 to 5000 nM.
Take `COCC(=O)Nc1c[nH]c2ccc(-c3cnn(-c4ccc(C(F)(F)F)cc4)c3)cc12` [Compound 174, 2-methoxy-N-(5-(1-(4-(trifluoromethyl)phenyl)-1H-pyrazol-4-yl)-1H-indol-3-yl)acetamide]: the EC50 lay within 200 to 1000 nM.
On to `CCC(=O)Nc1c[nH]c2ccc(-c3ccnn3C)cc12` [Compound 142, N-(5-(1-methyl-1H-pyrazol-5-yl)-1H-indol-3-yl)propionamide], for which the EC50 is 1000 to 5000 nM.
With `O=C(Nc1c[nH]c2ccc(-c3cnn(-c4ccc(C(F)(F)F)cc4)c3)cc12)C1(O)COC1` [Compound 194, 3-hydroxy-N-(5-(1-(4-(trifluoromethyl)phenyl)-1H-pyrazol-4-yl)-1H-indol-3-yl)oxetane-3-carboxamide], the EC50 fell in the range of 1000 to 5000 nM.
Turning to `O=C(Nc1c[nH]c2ccc(-c3cnn(-c4ccc(C(F)(F)F)cc4)c3)cc12)c1ccn[nH]1` [Compound 265, N-(5-(1-(4-(trifluoromethyl)phenyl)-1H-pyrazol-4-yl)-1H-indol-3-yl)-1H-pyrazole-5-carboxamide], the EC50 was 200 to 1000 nM.
In the case of `CCC(=O)Nc1c[nH]c2ccc(-c3cnn(-c4cnc(CC)cn4)c3)cc12` [Compound 248, N-(5-(1-(5-ethylpyrazin-2-yl)-1H-pyrazol-4-yl)-1H-indol-3-yl)propionamide], the EC50 was 1000 to 5000 nM.
`CC(C)(O)CC(=O)Nc1c[nH]c2ccc(-c3cnn(-c4ccc(C(F)(F)F)cc4)c3)cc12` [Compound 173, 3-hydroxy-3-methyl-N-(5-(1-(4-(trifluoromethyl)phenyl)-1H-pyrazol-4-yl)-1H-indol-3-yl)butanamide]: the EC50 fell in the range of 200 to 1000 nM.

Usually EC50 stands for the concentration at which the effect is half-maximal.
